Assay results taken from ChEMBL document CHEMBL2074307, “Characterization of drug transport by the human multidrug resistance protein 3 (ABCC3)” (J Biol Chem, 2001).

Experiments:
[1] = biological target: Multidrug resistance associated protein (Homo sapiens) (UniProt Q96QA9); experiment: TP_TRANSPORTER: increase in Etoposide intracellular accumulation (Etoposide: 2 uM, Indomethacin: 500 uM) in MRP3-expressing fibroblast from kidney of mdr1a/1b and mrp1 (-/-) mouse; type: functional, cell-based; settings: mdr1a/1b (-/-) and mrp1 (-/-) fibroblasts
[2] = biological target: Multidrug resistance associated protein (Homo sapiens) (UniProt Q96QA9); experiment: (§1) TP_TRANSPORTER: uptake in membrane vesicle from MRP3-expressing Sf9 cells; type: functional, cell membranes
[3] = biological target: Multidrug resistance associated protein (Homo sapiens) (UniProt Q96QA9); experiment: TP_TRANSPORTER: efflux in MRP3-expressing fibroblast from kidney of mdr1a/1b and mrp1 (-/-) mouse; type: functional, cell-based; settings: mdr1a/1b (-/-) and mrp1 (-/-) fibroblasts
[4] = biological target: Multidrug resistance associated protein (Homo sapiens) (UniProt Q96QA9); experiment: TP_TRANSPORTER: increase in Etoposide intracellular accumulation (Etoposide: 2 uM, Sulfinpyrazone: 2000 uM) in MRP3-expressing fibroblast from kidney of mdr1a/1b and mrp1 (-/-) mouse; type: functional, cell-based; settings: mdr1a/1b (-/-) and mrp1 (-/-) fibroblasts
[5] = substrate: COc1cc([C@@H]2c3cc4c(cc3[C@@H](O[C@@H]3O[C@@H]5CO[C@@H](C)O[C@H]5[C@H](O)[C@H]3O)[C@H]3COC(=O)[C@H]23)OCO4)cc(OC)c1O[C@@H]1O[C@H](C(=O)O)[C@@H](O)[C@H](O)[C@H]1O; experiment: as §1; type: functional, cell membranes
[6] = substrate: C[C@]12CC[C@@H]3c4ccc(O)cc4CC[C@H]3[C@@H]1CC[C@@H]2O[C@@H]1O[C@H](C(=O)O)[C@@H](O)[C@H](O)[C@H]1O; experiment: as §1; type: functional, cell membranes

COc1ccc2c(c1)c(CC(=O)O)c(C)n2C(=O)c1ccc(Cl)cc1
Activity [1]: inhibitor [[…] -> […] % of control (clone#38), 30 -> […] % of control (clone#77)]

N[C@@H](CCC(=O)N[C@@H](CS)C(=O)NCC(=O)O)C(=O)O
Activity [2]: is not a substrate [-]

COc1cc([C@@H]2c3cc4c(cc3[C@@H](O[C@@H]3O[C@@H]5CO[C@@H](C)O[C@H]5[C@H](O)[C@H]3O)[C@H]3COC(=O)[C@H]23)OCO4)cc(OC)c1O
Activity [3]: substrate [+]

O=C1C(CC[S+]([O-])c2ccccc2)C(=O)N(c2ccccc2)N1c1ccccc1 (stereo unspecified)
Activity [4]: inhibitor [18 -> 83 % of control (clone#38), 30 -> 77 % of control (clone#77)]

B1: Multidrug resistance associated protein (Homo sapiens), Q96QA9 (protein)
chain: MDALCGSGELGSKFWDSNLSVHTENPDLTPCFQNSLLAWVPCIYLWVALPCYLLYLRHHCRGYIILSHLSKLKMVLGVLLWCVSWADLFYSFHGLVHGRAPAPVFFVTPLVVGVTMLLATLLIQYERLQGVQSSGVLIIFWFLCVVCAIVPFRSKILLAKAEGEISDPFRFTTFYIHFALVLSALILACFREKPPFFSAKNVDPNPYPETSAGFLSRLFFWWFTKMAIYGYRHPLEEKDLWSLKEEDRSQMVVQQLLEAWRKQEKQTARHKASAAPGKNASGEDEVLLGARPRPRKPSFLKALLATFGSSFLISACFKLIQDLLSFINPQLLSILIRFISNPMAPSWWGFLVAGLMFLCSMMQSLILQHYYHYIFVTGVKFRTGIMGVIYRKALVITNSVKRASTVGEIVNLMSVDAQRFMDLAPFLNLLWSAPLQIILAIYFLWQNLGPSVLAGVAFMVLLIPLNGAVAVKMRAFQVKQMKLKDSRIKLMSEILNGIKVLKLYAWEPSFLKQVEGIRQGELQLLRTAAYLHTTTTFTWMCSPFLVTLITLWVYVYVDPNNVLDAEKAFVSVSLFNILRLPLNMLPQLISNLTQASVSLKRIQQFLSQEELDPQSVERKTISPGYAITIHSGTFTWAQDLPPTLHSLDIQVPKGALVAVVGPVGCGKSSLVSALLGEMEKLEGKVHMKGSVAYVPQQAWIQNCTLQENVLFGKALNPKRYQQTLEACALLADLEMLPGGDQTEIGEKGINLSGGQRQRVSLARAVYSDADIFLLDDPLSAVDSHVAKHIFDHVIGPEGVLAGKTRVLVTHGISFLPQTDFIIVLADGQVSEMGPYPALLQRNGSFANFLCNYAPDEDQGHLEDSWTALEGAEDKEALLIEDTLSNHTDLTDNDPVTYVVQKQFMRQLSALSSDGEGQGRPVPRRHLGPSEKVQVTEAKADGALTQEEKAAIGTVELSVFWDYAKAVGLCTTLAICLLYVGQSAAAIGANVWLSAWTNDAMADSRQNNTSLRLGVYAALGILQGFLVMLAAMAMAAGGIQAARVLHQALLHNKIRSPQSFFDTTPSGRILNCFSKDIYVVDEVLAPVILMLLNSFFNAISTLVVIMASTPLFTVVILPLAVLYTLVQRFYAATSRQLKRLESVSRSPIYSHFSETVTGASVIRAYNRSRDFEIISDTKVDANQRSCYPYIISNRWLSIGVEFVGNCVVLFAALFAVIGRSSLNPGLVGLSVSYSLQVTFALNWMIRMMSDLESNIVAVERVKEYSKTETEAPWVVEGSRPPEGWPPRGEVEFRNYSVRYRPGLDLVLRDLSLHVHGGEKVGIVGRTGAGKSSMTLCLFRILEAAKGEIRIDGLNVADIGDPILFSGTLRMNLDPFGSYSEEDIWWALELSHLHTFVSSQPAGLDFQCSEGGENLSVGQRQLVCLARALLRKSRILVLDEATAAIDLETDNLIQATIRTQFDTCTVLTIAHRLNTIMDYTRVLVLDKGVVAEFDSPANLIAARGIFYGMARDAGLA
Km [5]: 11.4 µM
Km [6]: 17.7 µM
